What was measured:
[1] = system: Glutamate, NMDA, Phencyclidine; test: off-target screen panel; type: binding; conditions: Rat cerebral cortex, [^3H]TCP
Glutamate, NMDA, Agonism = test: off-target screen panel; type: binding; conditions: Rat cerebral cortex, [^3H]CGP-39653
Estrogen ERα = target: T1, Estrogen ERα (Homo sapiens, UniProt P03372); test: off-target screen panel; type: binding; conditions: Human recombinant, [^3H]Estradiol
T1 construct: purchased Eurofins Panlabs Discovery Services (Taiwan)

Opiate δ1 (OP1, DOP) = target: T2, Opiate δ1 (OP1, DOP) (Homo sapiens, UniProt P41143); test: off-target screen panel; type: binding; conditions: Human recombinant, [^3H]Naltrindole
T2 construct: purchased Eurofins Panlabs Discovery Services (Taiwan)

Adenosine A2A = target: T3, Adenosine A2A (Homo sapiens, UniProt P29274); test: off-target screen panel; type: binding; conditions: Human recombinant, [^3H]CGS-21680
T3 construct: purchased Eurofins Panlabs Discovery Services (Taiwan)

67 non-PDE molecules = test: off-target screen panel, overall statement; type: binding; conditions: all 67 non-PDE molecules of the panel
[2] = target: T4, Transporter, Norepinephrine (NET) (Homo sapiens, UniProt P23975); test: off-target screen panel; type: binding; conditions: Human recombinant, [^125I]RTI-55
T4 construct: purchased Eurofins Panlabs Discovery Services (Taiwan)

Dopamine D4.2 = target: T5, Dopamine D4.2 (Homo sapiens, UniProt P21917, DEL265-296); test: off-target screen panel; type: binding; conditions: Human recombinant, [^3H]Spiperone
T5 construct: purchased Eurofins Panlabs Discovery Services (Taiwan)

[3] = target: T6, Platelet Activating Factor (PAF) (Homo sapiens, UniProt P25105); test: off-target screen panel; type: binding; conditions: Human platelets, [^3H]PAF
T6 construct: purchased Eurofins Panlabs Discovery Services (Taiwan)

Solubility = type: physicochemical
PDE7 = test: PET imaging in monkeys with [^11C]MTP38; type: in vivo, rhesus monkeys; conditions: after unlabeled MTP38 iv bolus 0.075 mg/kg + infusion 0.3 mg/kg/h
Method: Each monkey underwent multiple PET scans with intervals longer than 2 weeks. The monkeys were given an intramuscular injection of 0.04 mg/kg of atropine sulfate at 1.5 h before radioligand injection. They were subsequently anesthetized with an intramuscular injection of ketamine (5 mg/kg) and xylazine (0.5 mg/kg), intubated, and kept anesthetized with 1–2% isoflurane. Heart rate, electrocardiogram, body temperature, blood oxygen saturation level, and end-tidal CO2 were monitored during the PET scan. The monkeys were placed on a bed in a supine position, and the head was fixed at the center of the field of view of a microPET scanner Focus220. A transmission scan was performed for about 20 min using a ^68Ge-^68Ga point source. A 90-min list-mode data acquisition was started simultaneously with intravenous administration of [^11C]MTP38 via a saphenous vein cannula. All list-mode data were sorted into 3D sinograms, which were then Fourier-rebinned into 2D sinograms (frames: 10 s × 6, 30 s × 8, 1 min × 5, 2 min × 10, and 5 min × 12). The images were corrected for attenuation and reconstructed with a filtered back-projection algorithm using a Hanning filter with a cut-off at the Nyquist frequency (0.5 mm^−1).
Along with baseline scans, we carried out blocking PET experiments according to the following pretreatment protocols: (1) unlabeled MTP38 was administered as an intravenous bolus (0.075 mg/kg) at 1 h before radioligand injection followed by continuous infusion at a rate of 0.3 mg/kg/h until the end of the PET scan, and (2) MTP-X (0.3–30 mg/kg) was administered orally at 2 or 6 h before radioligand injection.
PET scans for monkeys at baseline and following pretreatment with unlabeled MTP38, and 3, 10, 30 mg/kg of MTP-X were performed along with arterial blood sampling to obtain a metabolite-corrected input function. In total, 22 arterial blood samples were collected manually with heparinized syringes via a saphenous artery contralateral to the radioligand injection. Sampling was performed at 10, 20, 30, 40, 50, 60, 75, 90, 105, 120, 150, 180, and 210 s and at 4, 5, 10, 20, 30, 45, 60, 75, and 90 min after radioligand injection. Blood samples were then placed on ice and divided into two aliquots, one of which was centrifuged with a refrigerated centrifuge (15,000×g, 3 min, 4 °C) to obtain plasma.
PET images were co-registered onto the individual MR images. ROIs were placed on the prefrontal and medial frontal cortices, hippocampus, amygdala, striatum (caudate + putamen), nucleus accumbens, thalamus, cerebellum (gray matter), and brainstem. TACs in the baseline and blockade experiments were generated for each ROI.
Regional TACs were examined by several analytical methods to calculate the regional total distribution volume (VT), which represents the sum of non-specific and specific radioligand binding. Compartment model (1- or 2-tissue) and Logan’s graphical analyses were employed for describing the radioligand kinetics in the brain. The fractional blood volume was fixed at 0.05. For compartment model analyses, an optimal model was chosen on the basis of Akaike’s information criterion (AIC) and model selection criterion (MSC). For graphical analyses, an equilibration time t* was determined so that by the maximum error from the regression within the linear segment was considered to be 10% for each TAC. Time stability of VT was investigated by truncating the data duration stepwise from 90 min to 30 min. The VT values with or without pretreatment with a blocker were then compared. We also validated the use of the cerebellum as a reference tissue by this comparison, in addition to the autoradiographic findings, in monkey brain slices. The non-displaceable binding potential (BPND) was calculated by the original multilinear reference tissue model (MRTMO). t* was determined in the same manner as Logan’s graphical analysis. […]

Bradykinin B1 = target: T7, Bradykinin B1 (Homo sapiens, UniProt P46663); test: off-target screen panel; type: binding; conditions: Human IMR-90 cells, [^3H](Des-Arg^10)-Kallidin
T7 construct: purchased Eurofins Panlabs Discovery Services (Taiwan)

Sigma σ1 = target: T8, Sigma σ1 (Homo sapiens, UniProt Q99720); test: off-target screen panel; type: binding; conditions: Human Jurkat cells, [^3H]Haloperidol
T8 construct: purchased Eurofins Panlabs Discovery Services (Taiwan)

hERG potassium channel = target: T9, hERG potassium channel (Homo sapiens, UniProt Q12809); test: off-target screen panel; type: binding; conditions: human recombinant hERG potassium channel, probe [^3H]Astemizole
T9 construct: purchased Eurofins Panlabs Discovery Services (Taiwan)

Adrenergic β1 = target: T10, Adrenergic β1 (Homo sapiens, UniProt P08588); test: off-target screen panel; type: binding; conditions: Human recombinant, [^125I]Cyanopindolol
T10 construct: purchased Eurofins Panlabs Discovery Services (Taiwan)

Calcium Channel N-Type = target: T11, Calcium Channel N-Type (Rattus norvegicus, UniProt Q02294); test: off-target screen panel; type: binding; conditions: read-out: Inhibition (%) at 1 μM
T11 construct: purchased Eurofins Panlabs Discovery Services (Taiwan)

Glutamate, Kainate = test: off-target screen panel; type: binding; conditions: Rat brain cortex, [^3H]Kainic acid

T8 sequence (Q99720 whole entry): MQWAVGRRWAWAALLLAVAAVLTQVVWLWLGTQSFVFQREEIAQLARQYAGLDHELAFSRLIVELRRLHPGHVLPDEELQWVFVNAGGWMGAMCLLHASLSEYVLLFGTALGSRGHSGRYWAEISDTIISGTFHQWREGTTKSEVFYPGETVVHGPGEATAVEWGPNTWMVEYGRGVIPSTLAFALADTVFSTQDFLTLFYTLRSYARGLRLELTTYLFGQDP
T6 sequence (P25105 whole entry): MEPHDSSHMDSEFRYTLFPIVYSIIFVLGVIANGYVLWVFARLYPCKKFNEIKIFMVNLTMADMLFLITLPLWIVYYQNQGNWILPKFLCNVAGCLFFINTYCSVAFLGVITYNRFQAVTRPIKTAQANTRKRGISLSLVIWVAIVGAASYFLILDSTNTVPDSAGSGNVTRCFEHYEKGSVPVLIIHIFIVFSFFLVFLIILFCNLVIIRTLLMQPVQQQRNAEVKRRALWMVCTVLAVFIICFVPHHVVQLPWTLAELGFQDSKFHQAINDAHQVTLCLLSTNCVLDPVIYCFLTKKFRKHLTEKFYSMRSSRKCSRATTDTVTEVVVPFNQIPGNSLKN
T10 sequence (P08588 whole entry): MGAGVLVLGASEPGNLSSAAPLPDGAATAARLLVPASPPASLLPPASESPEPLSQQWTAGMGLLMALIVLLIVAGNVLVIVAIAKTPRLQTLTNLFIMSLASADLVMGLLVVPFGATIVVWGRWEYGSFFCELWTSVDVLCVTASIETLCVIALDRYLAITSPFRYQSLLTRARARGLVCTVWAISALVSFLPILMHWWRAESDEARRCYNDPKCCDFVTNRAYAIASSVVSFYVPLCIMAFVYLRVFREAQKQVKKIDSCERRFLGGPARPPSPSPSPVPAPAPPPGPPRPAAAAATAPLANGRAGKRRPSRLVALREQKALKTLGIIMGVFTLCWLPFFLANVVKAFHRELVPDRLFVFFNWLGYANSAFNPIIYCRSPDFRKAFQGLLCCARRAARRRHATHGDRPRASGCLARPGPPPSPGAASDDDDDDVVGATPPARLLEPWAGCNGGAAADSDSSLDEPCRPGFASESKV
T4 sequence (P23975 whole entry): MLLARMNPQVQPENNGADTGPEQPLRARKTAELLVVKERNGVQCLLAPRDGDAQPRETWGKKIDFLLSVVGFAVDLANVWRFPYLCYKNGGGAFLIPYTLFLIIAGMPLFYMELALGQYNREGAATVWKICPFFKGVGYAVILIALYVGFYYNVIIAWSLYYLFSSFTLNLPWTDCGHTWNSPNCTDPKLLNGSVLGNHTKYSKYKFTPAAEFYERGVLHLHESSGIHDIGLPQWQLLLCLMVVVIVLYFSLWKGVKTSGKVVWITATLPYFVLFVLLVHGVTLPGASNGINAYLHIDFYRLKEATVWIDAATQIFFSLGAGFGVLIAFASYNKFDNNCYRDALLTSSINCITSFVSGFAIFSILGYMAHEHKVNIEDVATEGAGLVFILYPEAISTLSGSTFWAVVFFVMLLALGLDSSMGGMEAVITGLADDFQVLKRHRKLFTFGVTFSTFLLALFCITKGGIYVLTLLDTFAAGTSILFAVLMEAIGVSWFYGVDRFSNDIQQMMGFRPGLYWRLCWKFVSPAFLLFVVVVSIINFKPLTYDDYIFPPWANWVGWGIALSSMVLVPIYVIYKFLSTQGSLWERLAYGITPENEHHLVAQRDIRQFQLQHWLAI
T1 sequence (P03372 whole entry): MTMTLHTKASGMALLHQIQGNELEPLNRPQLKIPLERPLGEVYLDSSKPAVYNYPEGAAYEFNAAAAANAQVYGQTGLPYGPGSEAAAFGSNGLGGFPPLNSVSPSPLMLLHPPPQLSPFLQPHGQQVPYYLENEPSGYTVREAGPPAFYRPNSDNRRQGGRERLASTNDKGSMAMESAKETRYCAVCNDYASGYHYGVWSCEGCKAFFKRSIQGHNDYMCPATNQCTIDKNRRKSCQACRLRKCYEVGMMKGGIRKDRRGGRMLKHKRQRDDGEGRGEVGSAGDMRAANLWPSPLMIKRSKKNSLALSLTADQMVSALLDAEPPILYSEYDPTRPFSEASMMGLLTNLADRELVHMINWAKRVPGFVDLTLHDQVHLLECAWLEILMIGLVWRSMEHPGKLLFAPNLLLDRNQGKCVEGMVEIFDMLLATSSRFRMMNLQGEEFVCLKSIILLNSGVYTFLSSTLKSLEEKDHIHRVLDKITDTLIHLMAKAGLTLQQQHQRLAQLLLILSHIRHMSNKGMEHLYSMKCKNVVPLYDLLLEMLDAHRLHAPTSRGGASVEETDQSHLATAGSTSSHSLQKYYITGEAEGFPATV
T3 sequence (P29274 whole entry): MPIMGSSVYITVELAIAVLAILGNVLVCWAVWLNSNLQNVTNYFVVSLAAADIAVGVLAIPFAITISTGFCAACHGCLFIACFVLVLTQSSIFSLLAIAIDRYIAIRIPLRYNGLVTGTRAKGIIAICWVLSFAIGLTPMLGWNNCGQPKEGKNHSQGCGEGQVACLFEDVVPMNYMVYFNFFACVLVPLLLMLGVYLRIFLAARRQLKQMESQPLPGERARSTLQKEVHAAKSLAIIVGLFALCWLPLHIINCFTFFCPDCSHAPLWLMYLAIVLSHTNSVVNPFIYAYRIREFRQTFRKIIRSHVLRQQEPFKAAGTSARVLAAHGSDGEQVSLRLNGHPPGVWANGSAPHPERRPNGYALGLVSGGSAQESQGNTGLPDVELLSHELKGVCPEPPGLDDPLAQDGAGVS
T9 sequence (Q12809 whole entry): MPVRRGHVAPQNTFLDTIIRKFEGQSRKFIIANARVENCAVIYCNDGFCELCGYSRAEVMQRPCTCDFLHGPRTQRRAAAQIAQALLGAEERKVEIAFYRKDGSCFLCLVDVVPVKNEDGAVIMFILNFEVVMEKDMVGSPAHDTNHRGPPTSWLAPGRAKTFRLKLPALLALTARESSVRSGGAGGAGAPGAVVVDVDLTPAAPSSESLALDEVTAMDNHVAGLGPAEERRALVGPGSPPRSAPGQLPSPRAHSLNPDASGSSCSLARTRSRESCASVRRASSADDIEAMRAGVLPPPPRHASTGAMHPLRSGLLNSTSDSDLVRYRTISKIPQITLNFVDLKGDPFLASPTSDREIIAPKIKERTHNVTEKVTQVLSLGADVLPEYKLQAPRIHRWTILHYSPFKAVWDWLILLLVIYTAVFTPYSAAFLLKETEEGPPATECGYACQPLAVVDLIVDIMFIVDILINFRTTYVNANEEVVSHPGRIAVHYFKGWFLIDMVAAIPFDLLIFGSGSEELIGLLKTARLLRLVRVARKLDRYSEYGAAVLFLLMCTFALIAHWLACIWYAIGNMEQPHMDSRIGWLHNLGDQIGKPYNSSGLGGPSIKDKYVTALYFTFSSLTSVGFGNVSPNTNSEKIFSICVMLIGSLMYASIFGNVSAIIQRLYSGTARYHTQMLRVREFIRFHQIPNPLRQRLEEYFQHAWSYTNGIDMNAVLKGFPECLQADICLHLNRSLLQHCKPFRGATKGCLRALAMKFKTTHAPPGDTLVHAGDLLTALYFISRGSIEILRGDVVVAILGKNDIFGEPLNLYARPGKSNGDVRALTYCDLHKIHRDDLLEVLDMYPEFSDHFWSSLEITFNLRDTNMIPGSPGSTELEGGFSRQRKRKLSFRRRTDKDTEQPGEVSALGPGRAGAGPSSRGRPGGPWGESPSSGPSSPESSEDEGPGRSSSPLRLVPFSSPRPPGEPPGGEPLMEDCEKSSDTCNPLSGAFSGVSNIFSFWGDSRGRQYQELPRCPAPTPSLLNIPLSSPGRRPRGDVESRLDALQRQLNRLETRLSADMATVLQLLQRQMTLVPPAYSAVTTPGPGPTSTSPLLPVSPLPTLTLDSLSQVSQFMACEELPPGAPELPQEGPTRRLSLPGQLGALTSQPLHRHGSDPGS
T2 sequence (P41143 whole entry): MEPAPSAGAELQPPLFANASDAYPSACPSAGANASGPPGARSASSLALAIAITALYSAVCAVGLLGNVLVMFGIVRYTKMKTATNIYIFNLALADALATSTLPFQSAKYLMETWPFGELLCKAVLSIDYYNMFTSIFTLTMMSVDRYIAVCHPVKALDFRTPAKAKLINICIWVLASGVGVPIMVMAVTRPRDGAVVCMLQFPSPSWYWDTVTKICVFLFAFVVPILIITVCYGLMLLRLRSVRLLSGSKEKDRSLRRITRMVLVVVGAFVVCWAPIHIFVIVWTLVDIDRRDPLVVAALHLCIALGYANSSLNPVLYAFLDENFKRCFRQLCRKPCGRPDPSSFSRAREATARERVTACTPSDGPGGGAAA
T5 sequence (P21917 with tags, fused parts or gaps DEL265-296): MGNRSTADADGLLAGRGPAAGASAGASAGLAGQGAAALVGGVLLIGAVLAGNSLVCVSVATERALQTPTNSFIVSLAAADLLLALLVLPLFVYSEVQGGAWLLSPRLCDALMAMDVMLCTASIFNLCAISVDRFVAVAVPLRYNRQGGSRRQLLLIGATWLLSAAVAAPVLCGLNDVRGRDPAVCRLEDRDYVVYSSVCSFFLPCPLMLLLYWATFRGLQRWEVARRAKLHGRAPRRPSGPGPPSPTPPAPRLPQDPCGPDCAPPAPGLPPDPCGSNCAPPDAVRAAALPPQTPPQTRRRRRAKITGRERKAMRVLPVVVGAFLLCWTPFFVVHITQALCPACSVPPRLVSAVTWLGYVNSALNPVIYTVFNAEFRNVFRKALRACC
T7 sequence (P46663 whole entry): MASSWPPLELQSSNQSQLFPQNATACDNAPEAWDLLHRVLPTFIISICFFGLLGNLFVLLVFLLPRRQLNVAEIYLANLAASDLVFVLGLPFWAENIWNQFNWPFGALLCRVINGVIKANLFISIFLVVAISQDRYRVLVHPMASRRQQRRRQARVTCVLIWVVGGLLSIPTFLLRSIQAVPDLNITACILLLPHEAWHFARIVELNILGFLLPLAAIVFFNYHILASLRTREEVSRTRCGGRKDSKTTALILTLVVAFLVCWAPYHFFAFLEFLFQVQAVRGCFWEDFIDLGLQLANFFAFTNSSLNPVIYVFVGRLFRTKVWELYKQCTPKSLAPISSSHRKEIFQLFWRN

Question: Which results are given for `C[C@@H]1CC[C@H](C)N(c2nnc3c(N)ncc(C#N)n23)C1` (relative stereo) [MTP38, 8-amino-3-(2S*,5R*-dimethyl-1-piperidyl)-[1,2,4]triazolo[4,3-a]pyrazine-5-carbonitrile]?
Answer: Inhibition (%) at 1 μM [1]: -5%; Inhibition (%) at 1 μM (Glutamate, NMDA, Agonism): -3%; inhibition at 1 µM (Estrogen ERα): -1%; inhibition at 1 µM (Opiate δ1 (OP1, DOP)): -4%; inhibition at 1 µM (Adenosine A2A): 4%; inhibitions at 1 μM of the 67 non-PDE molecules tested (67 non-PDE molecules): less than 50%; inhibition at 1 µM [2]: 6%; inhibition at 1 µM (Dopamine D4.2): -3%; inhibition at 1 µM [3]: 4%; solubility (Solubility): low solubility; Striatal BPND of [^11C]MTP38 (PDE7; monkey #1): 0.157; Striatal BPND of [^11C]MTP38 (PDE7; monkey #2): 0.017; inhibition at 1 µM (Bradykinin B1): 9%; inhibition at 1 µM (Sigma σ1): 6%; inhibition at 1 µM (hERG potassium channel): 17%; inhibition at 1 µM (Adrenergic β1): -2%; inhibition at 1 µM (Calcium Channel N-Type): 1%; Inhibition (%) at 1 μM (Glutamate, Kainate): -2%

Reference: paper PMC8426238, “Synthesis and preclinical evaluation of [^11C]MTP38 as a novel PET ligand for phosphodiesterase 7 in the brain” (European Journal of Nuclear Medicine and Molecular Imaging, 2021)
